# From patent US10786468B2, “Deacetylnemorone abietane diterpenoids for use in cancer treatment” (University of South Carolina, priority 2017, dated 2020)
# Key:
# [1] = system: MG-63 (osteosarcoma) cells; test: MTS assay, MG-63; assay type: cell-based; details: MG-63, 48 and 72 hours of exposure, FIG. 9
# Source text: (§1) The human cell lines used for MTS assay screening included MG-63 (osteosarcoma), SK-OV-3 (ovarian adenocarcinoma), MDA-MB-231 (breast adenocarcinoma derived from a metastatic site), HCT 116 (colorectal carcinoma), HCT 116/200 (an FdUrd resistant subclone of HCT 116 cells), A2780ADR (a doxorubicin resistant subclone of the ovarian carcinoma A2780), and HUVEC (normal human umbilical vein endothelial cells). All cells were stored in liquid nitrogen until use. MG-63, SK-OV-3, MDA-MB-231, and HCT 116 cell lines were all obtained from ATCC. A2780ADR cells were obtained from Sigma-Aldrich. HCT 116/200 cells were obtained from Dr. Franklin G. Berger from the Center for Colon Cancer Research. HUVEC cells were obtained from Lonza. MG-63 cells were maintained in MEM medium (Corning) supplemented with 10% Fetal Bovine Essence (VWR) and 1% penicillin/streptomycin solution (Corning). […]
# (§2) Cells were first grown to approximately 80% confluency within […] tissue culture flasks (VWR). […] Cells were counted using a hemocytometer and their viability was confirmed using trypan blue (Gibco). […]
# (§3) After seeding, the cells were incubated for 24 hours at 37° C. and 5% CO2 to allow for cell attachment and renewal of the exponential growth phase. […] The cells were incubated for 2 hours, and the absorbance of each well at 490 nm was measured using a Spectramax 190 microplate reader.
# [2] = system: SK-OV-3 (ovarian adenocarcinoma) cells; test: MTS assay, SK-OV-3; assay type: cell-based; details: SK-OV-3, 48 and 72 hours of exposure, FIG. 10
# Source text: as §1, §2, §3
# [3] = system: MDA-MB-231 (breast adenocarcinoma) cells; test: MTS assay, MDA-MB-231; assay type: cell-based
# Source text: as §1, §2, §3
# [4] = system: HCT 116 (colorectal carcinoma) cells; test: MTS assay, HCT 116; assay type: cell-based
# Source text: as §1, §2, §3
# [5] = system: HCT 116/200 (FdUrd resistant subclone of HCT 116) cells; test: MTS assay, HCT 116/200; assay type: cell-based
# Source text: as §1, §2, §3
# [6] = system: A2780ADR (doxorubicin resistant subclone of ovarian carcinoma A2780) cells; test: MTS assay, A2780ADR; assay type: cell-based; details: 48 and 72 hours of exposure, FIG. 14
# Source text: as §1, §2, §3
# [7] = system: 59 cell lines of the NCI-60 panel; test: NCI-60 one-dose cytotoxicity screen, 59 cell lines; assay type: cell-based; details: 10 μM
# Method: (§4) One dose cytotoxicity screening was performed by the NCI-60 screening program of the National Institutes of Health (NIH), which is known in the art and available from the NIH. The NCI-60 panel is a collection of cancer cell lines, from various diverse tumors, which was developed in the 1980s by the National Cancer Institute to aid screening efforts for cytotoxic or cytostatic compounds.
# (§5) In these screens 59 cell lines were utilized to determine the cytotoxic effect of the deacetylnemorone. […]
# (§6) A control for each cell type was also simultaneously created, which was treated with 100 μL of culture media without deacetylnemorone. […] The bound stain was then dissolved in 10 mM trizma base and the absorbance was read using an automated plate reader at 515 nm.
# (§7) Suspension cells were treated in the same fashion with the exception that the cells were fixed once they had settled at the bottom of the wells using 50 μL of 80% TCA. The absorbance of each well was then converted to growth percent using equation 1 (below) where Ti is the average absorbance of the samples treated with a certain concentration of the compound of this invention, Tz represents the average absorbance of the samples fixed at the time the compound of interest was added to the experimental groups, and C is the average absorbance of the media treated control. […]
# melanoma cell lines = test: NCI-60 one-dose screen, melanoma cell lines; assay type: cell-based; details: 10 μM, 48 hours; in 6 out of 9 melanoma cell lines
# Method: as §4, §5, §6, §7
# melanoma line SK-MEL-5 = test: NCI-60 one-dose screen, SK-MEL-5; assay type: cell-based; details: 10 μM, 48 hours
# Method: as §4, §5, §6, §7
# SKMEL5 melanoma cells = test: Cell cycle analysis (PI staining, flow cytometry); assay type: cell-based
# Method: The effect of the deacetylnemorone on the cell cycle of SKMEL5 melanoma cells was determined using a PI staining assay. SKMEL5 cells were maintained in RPMI 1640 media supplemented with 10% FBS and 2 mM L-glutamine and incubated at 37° C. and 5% CO2. The cells were seeded in 6 well plates at a density of 300,000 cells per well. After 24 hours, the media was removed and replaced with either fresh media (control) or with media supplemented with 17.3 μM of the deacetylnemorone of FIG. 1. The cells were incubated with this treatment for 72 hours total. At 6, 12, 24, 48, and 72 hours, the cells from two wells each of the control of the treated group were trypsinized, collected in centrifuge tubes, and centrifuged at 2500 rpm for 5 minutes. The supernatant was removed, and the pellet was washed with PBS and centrifuged 2 times. The pellet was then suspended in 500 μL PBS and added 3 mL of 70% ethanol dropwise while vortexing. This mixture was then incubated at 4° C. for 24 hours. Next, the mixture was centrifuged, the supernatant was removed and the pellet was suspended in PBS and stored at 4° C. until all the samples were collected. […]
# [8] = system: MDA-MB-231 breast cancer cells; test: In vitro invasion assay (cell-free gap); assay type: cell-based, human
# Method: Cell migration of MDA-MB-231 breast cancer cells was assessed through making a cell-free gap with a Culture Insert 2 well 24 (Ibidi), consisting of two wells that were separated by a wall. A total of 70 μl of cell suspension comprising of 35×10^3 cells was added to each well. Cells were given 24 hours to attach and reach confluency. Culture inserts were then removed and cell debris was washed with PBS. Fresh culture media supplemented with different concentration of the compound of interest was added to the wells and the cells were incubated at 37° C. and 5% CO2 for 26 hours. Images were taken 0, 6, 20, and 26 hours after compound addition using a phase contrast Nikon Eclipse Ti-E inverted microscope. Quantification of invasion was performed by measuring the gap distance for three repetitions and using the following formula,
# [formula] where Wn is the width of gap after incubation, and W0 is the initial width right after forming the gap. Tube Formation Assay
# HUVEC endothelial cells = test: Tube formation assay on growth factor reduced Matrigel; assay type: cell-based, human; details: 8 hours of incubation
# Method: Growth factor reduced BD Matrigel (Corning), stored long-term at −20° C., was thawed on ice overnight in a 4° C. refrigerator prior to use. The following day, 50 μL of the thawed Matrigel was added to each well of a pre-chilled 96-well plate and incubated at 37° C. and 5% CO2 for approximately 30 minutes to allow the matrix to form a gel. Next, 100 μL of a cell suspension containing 20,000 HUVEC cells in cell culture media with various concentrations of deacetylnemorone was added to each well. The control consisted of HUVEC cells suspended in endothelial growth media alone. After 8 hours of incubation at 37° C. and 5% CO2, the number of tubes formed between the endothelial cells were quantified using an inverted microscope (Invitrogen EVOS FL Auto at 4× magnification).
substance,measurement,setting,value
deacetylnemorone,"cytotoxicity (percent viability, MTS)",[1],significant cytotoxic properties
same,"cytotoxicity (percent viability, MTS)",[2],significant cytotoxic properties
same,"cytotoxicity (percent viability, MTS)","[3]; MDA-MB-231, 48 and 72 hours of exposure, FIG. 11",significant cytotoxic properties
same,lowest concentration at which cell death was indicated (MTS),[3]; breast cancer,10 µg/mL
same,"cytotoxicity (percent viability, MTS)","[4]; HCT-116, 48 and 72 hours of exposure, FIG. 12",significant cytotoxic properties
same,lowest concentration at which cell death was indicated (MTS),[4]; colon cancer,10 µg/mL
same,"cytotoxicity (percent viability, MTS)","[5]; HCT 116/200, 48 and 72 hours of exposure, FIG. 13",significant cytotoxic properties
same,"cytotoxic effect in combination with FdUrd (percent viability, cell number)","[5]; HCT 116/200, 48 hour exposure, combination with FdUrd, FIG. 16 and 17","dose dependent, synergistic cytotoxic effect"
same,"cytotoxicity (percent viability, MTS)",[6],significant cytotoxic properties
same,number of cell lines whose growth was inhibited,"[7]; 48 hours, 59 cell lines screened",55 of the 59
same,average inhibition of percent growth across all 59 cell lines,[7]; after 48 hours,47%
same,growth inhibition of melanoma cell lines,melanoma cell lines,more than 70%
same,percent growth,melanoma line SK-MEL-5,negative percent growth
same,percent of cells in S phase,"SKMEL5 melanoma cells; SKMEL5, after 24 hours, 17.3 μM (method) / 15 μM (figure legend)",increase in the percent of cells in S phase
same,sub-G1 population,"SKMEL5 melanoma cells; SKMEL5, up to 72 hours",low sub-G1 population
same,invasion of breast cancer cells,"[8]; 1 μg/mL, after 26 hours",significantly inhibited
same,invasion of breast cancer cells,"[8]; 10 μg/mL, after 26 hours",significantly inhibited
same,invasion of breast cancer cells,[8]; after 20 hours of incubation,significantly inhibited
same,tube formation between HUVEC cells,HUVEC endothelial cells; 0.1 μg/mL,inhibit tube formation
same,tube formation between HUVEC cells,HUVEC endothelial cells; 10 μg/mL,inhibit tube formation
